According to patent US9045474B2, “Compounds and compositions for mitigating tissue damage and lethality” (The Regents of the University of California, priority 2010, dated 2015):
Several values for one entry are separate records, joined by “and”; a condition that tells them apart may be missing. Equal values may be shown once. Entries after “also recorded” stand apart in the source; their conditions may differ.

Columns and labels:
[1] = test system: RS112 strain of S. cerevisiae; assay: Classical DEL plating assay, radioprotection at 2000Gy irradiation; assay type: cell-based, Saccharomyces cerevisiae
Description: All DEL assays utilize the established methodology of “recombination” (deletion of the interruption segment and consequent end joining of the adjacent sequences) of a disrupted histidine gene that renders yeast cells exposed to radiation capable of growing on media lacking this amino acid. In the classical DEL assay radiation sensitive RS112 strain of S. cerevisiae is added to the compounds of interest suspended in complete media, incubated for 2 hrs, and irradiated at 2000Gy. The cells are then plated onto full (+13) and lacking histidine (−His) agar plates. After incubation the colonies are scored and recombination events are calculated. The efficacy of the compound is evaluated as a reduced fraction of DEL recombinations in comparison to that of irradiated controls without treatment. Radioprotectors decrease the frequency of such recombination frequencies after radiation exposure.
A plasmid with an internal fragment of the HIS3 gene, which is responsible for histidine synthesis in yeast, without which cells cannot survive in media lacking histidine, has been integrated at the HIS3 locus, yielding an integrative disruption of the HIS3 gene (Schiestl, R. H., et al., Genetics, 1988. 119(2): p. 237-47). […]

[2] = test system: C3H mice; assay: Toxicity experiments in C3H mice; assay type: in vivo, mouse; conditions: 150 mg/kg, 75 mg/kg and 5 mg/kg; 120 days following the injections
Description: Having seen no adverse effects of the chemicals alone on mammalian cell models we performed a preliminary toxicity study on a group of C3H mice. […] In a pilot reproductive toxicity study, 12, week old female mice were paired up with 6 week old male mice and checked daily for the presence of a characteristic “plug” in the female vaginal canal as an indication of mating. As soon as the mating has occurred, males were removed and the females were treated weekly with 75 mg/kg s.c. throughout the gestation period and until the pups were weaned off (8 week treatment course). After weaning, treatment of the offspring was initiated at the same 75 mg/kg s.c. weekly dose. Controls were injected s.c. on the same schedule with the carrier (1N saline). Five treated and five control females gave birth to the same average number of pups per litter (n=6) without any detectable toxicities to the other. 3 litters of each treated and control groups survived to continue the study. No pathologies, toxicities nor adverse effects were observed. There are no developmental or teratogenic deficiencies in mice, average weights (21 g) are the same in both groups also.

[3] = test system: C3H mice; assay: Radioprotection experiments in C3H mice (8Gy, compound before exposure); assay type: in vivo, mouse; conditions: 8Gy (LD100/30), 75 mg/kg
Description: Only the results for Compound 4 are significant at Day 14 post irradiation. Irradiated controls died on Day 13 while most of the treated mice survived to Day 18, and mice in group 4 and 1 have survived to Day 24. The limitation of this study was the number of mice in each group due to the small quantities of the commercially available compounds.

[4] = test system: DBA/2 Mice; assay: Radiation-induced leukemia model; assay type: in vivo, mouse
Description: DBA/2 Mice (15/group) were irradiated with ^60Co (3.5 Gy, 0.6 Gy/min) to induce leukemia. One group received no drug, another group of mice were injected s.c. with Yel001 or Yel002 (25 mg/kg) with 5 injections for 5 days. Leukemogenesis was monitored for 90 days. Blood was drawn at days −1, 21, 42, and 63 to monitor for leukemia every 21 days to monitor for leukemia development using WBCs and differentials. This leukemia model takes advantage of non-targeted radiation effects, which are important to the carcinogenic process. This model has a shorter latency period to gamma radiation-induced leukemia (latency to 50% leukemic population: 107 days) than other murine leukemia models such as CBA mouse (399 days: 50% leukemic population). DBA/2 mice were irradiated with 3.5 Gy (^60Co 0.60 Gy/min) and then injected intravenously with (5×10^6) FDC-P1 cells. Animals were then monitored 5×/weekly for 10 weeks-post-injection and then daily after 10 weeks-post-injection until leukemia development and/or euthanasia. After the animal has been determined to be leukemic using hematological parameters, it is euthanized and a necropsy is conducted to definitively determine a conclusive diagnosis of leukemia. Control animals not developing leukemia are assessed at 270 days post experiment initiation. At that time they are euthanized and necropsied.

[5] = test system: C3H mice; assay: Recovery of the hematopoietic system after 6 Gy irradiation; assay type: in vivo, mouse
Description: WBC-total white blood cells (K/uL), NE—neutrophils (K/uL), and LY—lymphocytes (K/uL). With 1—tail, Student's t-Student's t-test, WBC and NE, along with monocytes, eosinophils, and basophils (data not shown) are p<0.05.
RBC— red blood cells (M/uL), HB-hemoglobin (g/dL), and HCT-hematocrit (%).

[6] = test system: yeast DEL tester strain RS112; assay: DEL assay, UV radiation-induced damage; assay type: cell-based, Saccharomyces cerevisiae
Description: DEL tester strain was irradiated with 4000 J/m^2 in the ultraviolet range and treated with Yel001 or Yel002 at 60 minutes at the concentration of 15 uM.

[7] = test system: DEL RS112 tester strain; assay: DEL assay, damage by chemical carcinogen MMS; assay type: cell-based, Saccharomyces cerevisiae; conditions: 15 uM, 1 hrs after exposure to MMS
Description: A DEL assay, described above, is used for assessing mitigation of damage induced by chemical carcinogens by compounds of invention.
Tests in this example show administration of Yel001 and Yel002 confers reduction against chemical carcinogen Methyl methanesulfonate (MMS) in vitro.
Reduction of cytotoxicity and genotoxicity with Yel002 is p<0.007 and p<0.04 restively; p-values for Yel001 are 0.0007 (genotoxicity) and 0.1 for cytotoxicity.

[8] = test system: primary keratinocytes; assay: Proliferation of primary keratinocytes after 5Gy irradiation; assay type: cell-based, human; conditions: 5 uM, cultured 11 days
Description: After the IR the cells were treated with Yel002 and cultured for 11 days.

[9] = test system: C3H mice; assay: Mitigation of radiation-induced lethality in C3H mice (8Gy, LD100/30)
Description: Radiomitigation studies were conduced by pre-treating C3H mice with the compounds of interest at as concentration of 75 mg/kg and at 24 hrs and 1 hr before an 8 Gy exposure. On a 5×24 mitigation treatment protocol mice were first lethally irradiated with 8 Gy and 24 hrs later received the first subcutaneous injection with the compound suspension with subsequent injections at 48, 72, 96, and 120 hrs. The concentration of the compound in the suspension was 75 mg/kg carrier with either 1N saline or phosphate buffer solution (PBS).
C3H mice in the mitigation experiment were irradiated with 8Gy and then injected with 75 mg/kg 1 hr post exposure and then again 25 hrs post exposure.

SMILES: COc1ccc2cc(-c3nc4ccc(C)cn4c3NCc3ccco3)c(=O)[nH]c2c1 [Yel002]
- radioprotector characteristics (genotoxicity and cytotoxicity protection) [1]: radioprotector characteristics
- adverse physiological or behavioral effects [2]: did not show any adverse physiological nor behavioral adverse effects
- survival versus 8 Gy control group ([3]; listed as 5): noticeable difference in survival
- survival versus 8 Gy control group ([3]; listed as Compound 5): increase in survival
- first development of leukemia ([4]; 3.5 Gy, 25 mg/kg s.c., no drug also within 42 days): 42 days
- mice exhibiting leukemia ([4]; Day 94, 3.5 Gy, 25 mg/kg s.c. 5 injections, irradiated controls 30%): 10%
- leukemia frequency ([4]; Day 270, irradiated population 90%): 40%
- latency to leukemia development ([4]; FIG. 17): increased latency to leukemia development
- frequency of radiation induced and/or spontaneous cancer ([4]; FIG. 18): effective for reducing the frequency of radiation induced and spontaneous cancer
- recovery of total white blood cells, red blood cells, and platelets ([5]; 75 mg/kg s.c. 5×24): increases the recovery
- recovery of the hematopoietic system ([5]; 75 mg/kg s.c. 5×24 hr schedule): promote the recovery of the hematopoietic system
- UV genotoxicity and cytotoxicity ([6]; 15 uM, P<0.05): reduces cell death and genotoxicity; also recorded: significantly reduces genotoxicity and cytotoxicity
- survival ([6]; 4000 J/m^2 UV, 15 uM at 60 minutes, untreated 0.64%): 1.84%
- genotoxicity and cytotoxicity by MMS [7]: reduction in genotoxicity and cytotoxicity; also recorded: can be mitigated
- proliferation as compared to controls [8]: increased proliferation
- mitigation efficacy ([9]; 8Gy, 75 mg/kg 1.25 protocol): show activity
- mice survived LD100/30 irradiation ([9]; 8Gy, 75 mg/kg at 1 hr and 25 hrs post exposure, past 30 days, first small study): 67%
- survival at 30 days ([9]; 8Gy, 75 mg/kg s.c. at 24, 48, 72, 96, 120 hrs (5×24)): 100% and 75%
- survival at 30 days ([9]; 8Gy, 75 mg/kg s.c. at 24, 48, 72, 96, 120 hrs (5×24), listed as Yel2): 100%
- survival at 30 days ([9]; 8Gy, 75 mg/kg s.c. at 1 hr and 25 hrs (1.25 schedule)): 88%
- percentage of survivors ([9]; 8Gy, both protocols, 252 days post irradiation): 40%
- animals still alive beyond 30 day window ([9]; 8Gy, both protocols, +292 days): 40%
- survival, oral (gavage) administration ([9]; 8Gy, oral gavage in saline, 5×24 schedule): 33%
- dose modifying factor (DMF) ([9]; at LD50/30, 7Gy to 9.1 Gy, 75 mg/kg 5×24 s.c.): 1.15
